The values below come from US8242151B2, “Tricyclic compounds” (Kyowa Hakko Kirin Co., Ltd., priority 2007, dated 2012).

Assay [1] has as its system spontaneously hypertensive rats (SHR). The experiment in a line: Antihypertensive action by tail cuff method. It is filed as in vivo, rat. Conditions: oral once a day for 7 days, about 4 to 9 hr after final administration. The protocol:
18- to 22-week-old spontaneously hypertensive rats (SHR) were used.
Before drug administration, the body weight, blood pressure and heart rate of each rat were measured, and the rats were grouped such that these values are almost the same between groups. A solvent (0.5% methylcellulose solution) and a test compound were repeatedly administered orally once a day for 7 days. At about 4 to 9 hr after the final administration, systolic blood pressure and heart rate were non-invasively measured according to the following.
The rats were placed in a cylindrical restrainer, heated to 37° C., and blood pressure and heart rate were measured under resting state using a Tail Cuff Method. For the measurement, a non-invasive blood pressure measurement apparatus (PS-600, Riken Kaihatsu, Tokyo) was used. The blood pressure and heart rate of each rat was measured 5 times, and the average was taken as the value of each rat.

For assay [2] the test system is unchanged. Briefly: Antihypertensive action by telemetry method. It is filed as in vivo, rat. Particulars: oral once a day for 4 days, 24 hr averages. An excerpt: A telemetry transmitter was indwelled in the abdominal artery of spontaneously hypertensive rats (SHR), and the blood pressure and heart rate were monitored. The rats were acclimated and reared for 4 weeks or more, and only the rats with hypertension were used for the test. Before drug administration, the rats were grouped such that the blood pressure and heart rate of each rat would be of the same levels between the groups. A solvent (0.5% methylcellulose solution) and a test compound were repeatedly administered orally once a day for 4 days. The average systolic blood pressure for 24 hr, average diastolic blood pressure for 24 hr and average heart rate for 24 hr were calculated on each administration day.

In assay [3] the target is T1, GAL4-PPARγ chimeric nuclear receptor (human PPARγ ligand binding region) (Homo sapiens, UniProt P37231).
T1 construct: expressed in transfected cells; host or cells: HEK293EBNA cells
T1 sequence (P37231 174-475 isoform P37231-2): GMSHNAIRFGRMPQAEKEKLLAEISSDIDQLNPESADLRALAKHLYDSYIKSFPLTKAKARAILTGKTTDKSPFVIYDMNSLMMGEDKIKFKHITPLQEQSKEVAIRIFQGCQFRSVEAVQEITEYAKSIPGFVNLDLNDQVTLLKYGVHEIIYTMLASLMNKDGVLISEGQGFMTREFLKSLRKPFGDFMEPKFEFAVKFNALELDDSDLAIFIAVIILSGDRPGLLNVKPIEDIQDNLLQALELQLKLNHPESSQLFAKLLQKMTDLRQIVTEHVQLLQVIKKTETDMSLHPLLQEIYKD
The experiment in a line: Transactivation assay of PPARγ by transient gene transfer (GAL4-PPARγ luciferase reporter). It is filed as cell-based. Conditions: HEK293EBNA cells, 24 hr; concentration showing 50% of efficacy; activity relative to pioglitazone 10 μmol/L = 100%. The protocol: The agonist activity of compound (I) to PPARγ was determined by a transactivation assay method using a chimeric nuclear receptor of a DNA binding region of a yeast transcription factor GAL4 and a PPARγ ligand binding region. Specifically, the PPARγ agonist activity of compound (I) was evaluated by the following method based on the method of Lehmann et al. (J Biol. Chem., 1995, vol. 270, page 12953).
HEK293EBNA cells cultured in Dulbecco's Modified Eagle medium (Invitrogen) containing 10 v/v % fetal calf serum (Invitrogen) were used. 30 mL of the above-mentioned cells (density: 1×10^5 cells/mL) were inoculated in a […] culture dish (Iwaki Glass), and cultured overnight. Using SuperFect Transfection Reagent (QIAGEN), a plasmid expressing a GAL4-PPARγ chimeric nuclear receptor fusing 174-475 amino acids, which are human PPARγ ligand binding region, and 1-147 amino acids, which are GAL4 DNA binding region, and a reporter plasmid expressing a GAL4 responsive luciferase were transiently introduced into the cells at a proportion of 4:1. After 5 hr from gene introduction, the cells were detached from the culture dish, and the detached cells (density: 2×10^4 cells/mL) were inoculated by 100 μL in each well of a 96 well white plate (SUMITOMO BAKELITE), and cultured overnight. The medium was removed, compound (I) diluted in various concentrations with serum-free Dulbecco's Modified Eagle medium was added by 100 μL, and the mixture was reacted under a 5% carbon dioxide gas stream (5% CO2) at 37° C. for 24 hr. On the other hand, as a positive control, 10 μmol/L of pioglitazone (100 μL) was added, and the mixture was reacted under a 5% carbon dioxide gas stream (5% CO2) at 37° C. for 24 hr. As a substrate of luciferase, 100 μL of Steady-Glo (Promega) was added to each well and the mixture was thoroughly stirred. Immediately thereafter, the chemical luminescence due to luciferase was measured using TopCount NTX (Packard).
The agonist activity (activity rate (%)) of compound (I) to PPARγ was calculated according to the following formula, as a relative activity when the agonist activity on addition of pioglitazone (10 μmol/L) was 100%.

As for `CCc1nc2c(C)ccnc2n1Cc1ccc2c(c1)CCc1ccccc1N2C(C)c1nnn[nH]1` (stereo not shown) [Compound 26, 2-(2-ethyl-7-methyl-3H-imidazo[4,5-b]pyridin-3-yl)methyl-5-[1-(1H-tetrazol-5-yl)ethyl]-10,11-dihydro-5H-dibenzo[b,f]azepine], the “antihypertensive action (systolic blood pressure, tail cuff)” value in assay [1] is “antihypertensive action”.

With `CCc1nc2c(C)cc(C)nc2n1Cc1ccc2c(c1)CCc1ccccc1/C2=C\c1noc(=O)[nH]1` [Compound 29, (E)-2-(2-ethyl-5,7-dimethyl-3H-imidazo[4,5-b]pyridin-3-yl)methyl-5-(5-oxo-4,5-dihydro-1,2,4-oxadiazol-3-yl)methylene-10,11-dihydro-5H-dibenzo[a,d]cycloheptene], the “antihypertensive action (blood pressure, telemetry)” value in assay [2] was “antihypertensive action”. In assay [1], the “antihypertensive action (systolic blood pressure, tail cuff)” value is reported as “antihypertensive action”. Further, in assay [3], the EC50 (usually the concentration that produces a half-maximal response) amounted to 326 nM.

Take `CCc1nc2c(C)ccnc2n1Cc1ccc2c(c1)CCc1ccccc1/C2=C(/C)c1noc(=O)[nH]1` [Compound 42, (E)-2-(2-ethyl-7-methyl-3H-imidazo[4,5-b]pyridin-3-yl)methyl-5-[1-(5-oxo-4,5-dihydro-1,2,4-oxadiazol-3-yl)ethylidene]-10,11-dihydro-5H-dibenzo[a,d]cycloheptene]: the “antihypertensive action (blood pressure, telemetry)” value in assay [2] is recorded as “antihypertensive action”. In addition, in assay [1], the “antihypertensive action (systolic blood pressure, tail cuff)” value is reported as “antihypertensive action”. This compound also had an EC50 in assay [3] of 1020 nM.

For the compound `CCc1nc2c(Cl)cc(C)nc2n1Cc1ccc2c(c1)CCc1ccccc1/C2=C(/C)c1noc(=O)[nH]1` [Compound 44, (E)-2-(7-chloro-2-ethyl-5-methyl-3H-imidazo[4,5-b]pyridin-3-yl)methyl-5-[1-(5-oxo-4,5-dihydro-1,2,4-oxadiazol-3-yl)ethylidene]-10,11-dihydro-5H-dibenzo[a,d]cycloheptene], the “antihypertensive action (blood pressure, telemetry)” value in assay [2] is given as “antihypertensive action”. For the same compound, the “antihypertensive action (systolic blood pressure, tail cuff)” value in assay [1] is “antihypertensive action”. This compound also came in with an EC50 in assay [3] of 784 nM.

Turning to `CCOc1nc2c(C)cc(C)nc2n1Cc1ccc2c(c1)CCc1ccccc1/C2=C(/C)c1noc(=O)[nH]1` [Compound 86, (E)-2-(2-ethoxy-5,7-dimethyl-3H-imidazo[4,5-b]pyridin-3-yl)methyl-5-[1-(5-oxo-4,5-dihydro-1,2,4-oxadiazol-3-yl)ethylidene]-10,11-dihydro-5H-dibenzo[a,d]cycloheptene], the “antihypertensive action (blood pressure, telemetry)” value in assay [2] is on record as “antihypertensive action”. In assay [3], this compound came in with a 50% effective concentration (EC50) of 323 nM.

Turning to `C/C(=C1/c2ccccc2CCc2cc(Cn3c(C4CC4)nc4c(C)ccnc43)ccc21)c1nnn[nH]1` [Compound 100, (E)-2-(2-cyclopropyl-7-methyl-3H-imidazo[4,5-b]pyridin-3-yl)methyl-5-[1-(1H-tetrazol-5-yl)ethylidene]-10,11-dihydro-5H-dibenzo[a,d]cycloheptene], in assay [2], the “antihypertensive action (blood pressure, telemetry)” value is “antihypertensive action”. In assay [3], this compound registered an EC50 of 1020 nM.

`CCc1nc2c(C)cc(C)nc2n1Cc1ccc2c(c1)COc1ccccc1/C2=C\c1noc(=O)[nH]1` [Compound 118, (Z)-8-(2-ethyl-5,7-dimethyl-3H-imidazo[4,5-b]pyridin-3-yl)methyl-11-(5-oxo-4,5-dihydro-1,2,4-oxadiazol-3-yl)methylene-6,11-dihydrodibenzo[b,e]oxepine]: in assay [2], the “antihypertensive action (blood pressure, telemetry)” value was “antihypertensive action”. Also, a half-maximal effect in assay [3] (EC50) was put at 348 nM.

As to `CCOc1nc2c(C)cc(C)nc2n1Cc1ccc2c(c1)COc1ccccc1/C2=C\c1noc(=O)[nH]1` [Compound 124, (Z)-8-(2-ethoxy-5,7-dimethyl-3H-imidazo[4,5-b]pyridin-3-yl)methyl-11-(5-oxo-4,5-dihydro-1,2,4-oxadiazol-3-yl)methylene-6,11-dihydrodibenzo[b,e]oxepine], the “antihypertensive action (blood pressure, telemetry)” value in assay [2] is given as “antihypertensive action”. In assay [3], this compound had an EC50 of 320 nM.

As for `CCc1nc2c(Cl)cc(C)nc2n1Cc1ccc2c(c1)COc1ccccc1/C2=C(/C)c1noc(=O)[nH]1` [Compound 129, (Z)-8-(7-chloro-2-ethyl-5-methyl-3H-imidazo[4,5-b]pyridin-3-yl)methyl-11-[1-(5-oxo-4,5-dihydro-1,2,4-oxadiazol-3-yl)ethylidene]-6,11-dihydrodibenzo[b,e]oxepine], the “antihypertensive action (blood pressure, telemetry)” value in assay [2] is “antihypertensive action”. In assay [3], this compound registered an EC50 of 611 nM.

Take `CCOc1nc2c(Cl)ccnc2n1Cc1ccc2c(c1)COc1ccccc1/C2=C(/C)c1noc(=O)[nH]1` [Compound 138, (Z)-8-(7-chloro-2-ethoxy-3H-imidazo[4,5-b]pyridin-3-yl)methyl-11-[1-(5-oxo-4,5-dihydro-1,2,4-oxadiazol-3-yl)ethylidene]-6,11-dihydrodibenzo[b,e]oxepine]: the “antihypertensive action (blood pressure, telemetry)” value in assay [2] was “antihypertensive action”. In addition, in assay [3], the EC50 is 550 nM.

Consider `C/C(=C1\c2ccc(Cn3c(C4CC4)nc4c(Cl)ccnc43)cc2COc2ccccc21)c1noc(=O)[nH]1` [Compound 139, (Z)-8-(7-chloro-2-cyclopropyl-3H-imidazo[4,5-b]pyridin-3-yl)methyl-11-[1-(5-oxo-4,5-dihydro-1,2,4-oxadiazol-3-yl)ethylidene]-6,11-dihydrodibenzo[b,e]oxepine], for which the “antihypertensive action (systolic blood pressure, tail cuff)” value in assay [1] is “antihypertensive action”.

On to `CCOc1nc2c(Cl)cccc2n1Cc1ccc2c(c1)COc1ccccc1/C2=C(/C)c1noc(=O)[nH]1` [Compound 146, (Z)-8-(4-chloro-2-ethoxybenzimidazol-1-yl)methyl-11-[1-(5-oxo-4,5-dihydro-1,2,4-oxadiazol-3-yl)ethylidene]-6,11-dihydrodibenzo[b,e]oxepine], for which, in assay [2], the “antihypertensive action (blood pressure, telemetry)” value was “antihypertensive action”. In assay [3], this compound came in with an EC50 of 336 nM.

Take `C/C(=C1\c2ccc(Cn3c(C4CC4)nc4c(Cl)cccc43)cc2COc2ccccc21)c1noc(=O)[nH]1` [Compound 147, (Z)-8-(4-chloro-2-cyclopropylbenzimidazol-1-yl)methyl-11-[1-(5-oxo-4,5-dihydro-1,2,4-oxadiazol-3-yl)ethylidene]-6,11-dihydrodibenzo[b,e]oxepine]: the “antihypertensive action (blood pressure, telemetry)” value in assay [2] is reported as “antihypertensive action”. In assay [3], this compound yielded an EC50 of 226 nM.

For `CCc1nc2c(C)cc(C)nc2n1Cc1ccc2c(c1)CCc1ccccc1C2=CC#N` [Compound S15, [2-(2-ethyl-5,7-dimethyl-3H-imidazo[4,5-b]pyridin-3-yl)methyl-10,11-dihydro-5H-dibenzo[a,d]cyclohepten-5-ylidene]acetonitrile], in assay [2], the “antihypertensive action (blood pressure, telemetry)” value is on record as “antihypertensive action”. Moreover, the response in assay [3] was half-maximal at 1250 nM (EC50).

Regarding `CCc1nc2c(C)cc(C)nc2n1Cc1ccc2c(c1)CCc1ccccc1/C2=C\c1nnn[nH]1` [Compound S16, (E)-2-(2-ethyl-5,7-dimethyl-3H-imidazo[4,5-b]pyridin-3-yl)methyl-5-(1H-tetrazol-5-yl)methylene-10,11-dihydro-5H-dibenzo[a,d]cycloheptene], the “antihypertensive action (blood pressure, telemetry)” value in assay [2] is on record as “antihypertensive action”. Further, in assay [3], the EC50 amounted to 305 nM.
